The source of these data is US8431593B2, “Heteroaryl amide derivatives” (H. Lundbeck A/S, priority 2006, dated 2013).

Read-outs that look alike come from different tables or passages of the source.

In general, IC50 refers to the concentration needed to halve the response being measured.

The experiment has as its target T1, P2X7 receptor (Homo sapiens, UniProt Q99572).
T1 construct: host or cells: SH-SY5Y
T1 sequence (Q99572 1-595): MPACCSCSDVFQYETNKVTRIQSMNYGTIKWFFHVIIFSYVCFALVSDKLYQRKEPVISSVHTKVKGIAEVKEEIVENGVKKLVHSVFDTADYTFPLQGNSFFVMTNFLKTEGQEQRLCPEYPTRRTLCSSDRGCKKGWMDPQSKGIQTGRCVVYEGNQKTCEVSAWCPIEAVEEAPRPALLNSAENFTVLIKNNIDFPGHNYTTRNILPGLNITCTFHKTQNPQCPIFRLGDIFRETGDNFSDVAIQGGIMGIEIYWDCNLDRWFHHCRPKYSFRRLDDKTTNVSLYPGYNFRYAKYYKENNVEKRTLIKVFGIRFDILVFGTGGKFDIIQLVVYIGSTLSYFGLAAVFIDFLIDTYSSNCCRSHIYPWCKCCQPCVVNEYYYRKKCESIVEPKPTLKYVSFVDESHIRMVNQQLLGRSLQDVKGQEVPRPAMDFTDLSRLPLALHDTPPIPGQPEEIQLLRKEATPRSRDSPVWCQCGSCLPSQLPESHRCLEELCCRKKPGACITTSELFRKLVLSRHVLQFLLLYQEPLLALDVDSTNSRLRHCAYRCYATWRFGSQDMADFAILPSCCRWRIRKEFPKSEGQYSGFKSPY
Kind of experiment: P2X7 calcium mobilization assay, high throughput, antagonist activity (Example 4A). It is filed as cell-based. A digest of the protocol: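 Cells plated 100,000/well the day before; after 1 h dye loading and one rinse, cells were preincubated 1 h at room temperature with test compound. Calcium mobilization then read on FLIPR^TETRA; maximum RFU corrected by subtracting mean no-agonist response and referenced to mean agonist-control maximum.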
(Calcium assays in cells follow changes in intracellular calcium, usually with a dye or a luminescent sensor.)

Where [1] appears, read: fluorescence response of cells exposed to 80 μM 2′(3′)-O-(4-benzoyl-benzoyl)adenosine 5′-triphosphate, Example 4A, read-out: IC50.

With `CC1(C)C2CC[C@@H](CNC(=O)c3cccc4nc(CN5CC[C@@H](N)C5)cn34)C1C2` (stereo partly drawn) [Compound 249, 2-{[(3R)-3-aminopyrrolidin-1-yl]methyl}-N-{[(2R)-6,6-dimethylbicyclo[3.1.1]hept-2-yl]methyl}imidazo[1,2-a]pyridine-5-carboxamide], the IC50 under setting [1] was less than 2000 nM.
On the same count and under the same terms, in the case of `COC[C@@H]1CCCN1C(=O)c1cn2c(C(=O)NCC(CC(C)C)c3ccccc3)cccc2n1` (stereo partly drawn) [Compound 257, 2-{[(2S)-2-(methoxymethyl)pyrrolidin-1-yl]carbonyl)-N-(4-methyl-2-phenylpentyl)imidazo [1,2-a]pyridine-5-carboxamide] it was less than 2000 nM.
The same measure, in the same setting: in the case of `CC(C)CC(CNC(=O)c1cccc2nc(C(=O)N3CCCC3)cn12)c1ccccc1` (stereo not shown) [Compound 260, N-(4-methyl-2-phenylpentyl)-2-(pyrrolidin-1-ylcarbonyl)imidazo [1,2-a]pyridine-5-carboxamide] it was less than 2000 nM; in that of `CCCN(C)C(=O)c1cn2c(C(=O)NCC(CC(C)C)c3ccccc3)cccc2n1` (stereo not shown) [Compound 262, 2-N-methyl-5-N-(4-methyl-2-phenylpentyl)-2-N-propylimidazo[1,2-a]pyridine-2,5-dicarboxamide], less than 2000 nM.
As for `CC(C)CC(CNC(=O)c1cccc2nc(C(=O)N3CCC4(CC3)OCCO4)cn12)c1ccccc1` (stereo not shown) [Compound 263, 2-(1,4-dioxa-8-azaspiro[4.5]dec-8-ylcarbonyl)-N-(4-methyl-2-phenylpentyl)imidazo [1,2-a]pyridine-5-carboxamide], the concentration for half-maximal inhibition (IC50) was less than 2000 nM.
With `NCCSCc1cn2c(C(=O)NCC34CC5CC(CC(C5)C3)C4)cccc2n1` [Compound 266, N-(adamantan-1-ylmethyl)-2-{[(2-aminoethyl)thio]methyl}imidazo[1,2-a]pyridine-5-carboxamide], the IC50 under setting [1] was less than 2000 nM.
For `O=C(NCC12CC3CC(CC(C3)C1)C2)c1cccc2nc(CS(=O)(=O)CCO)cn12` [Compound 267, N-(adamantan-1-ylmethyl)-2-{[(2-hydroxyethyl)sulfonyl]methyl}imidazo[1,2-a]pyridine-5-carboxamide], under setting [1], the IC50 is less than 2000 nM.
On the same count and under the same terms, in the case of `CN(C)C(=O)NCCc1cn2c(C(=O)NCC34CC5CC(CC(C5)C3)C4)cccc2n1` [Compound 268, N-(adamantan-1-ylmethyl)-2-{2-[(dimethylcarbamoyl)amino]ethyl} imidazo[1,2-a] pyridine-5-carboxamide] it was less than 2000 nM; in that of `NCC(=O)NCCc1cn2c(C(=O)NCC34CC5CC(CC(C5)C3)C4)cccc2n1` [Compound 269, N-(adamantan-1-ylmethyl)-2-[2-(glycylamino)ethyl] imidazo[1,2-a] pyridine-5-carboxamide], less than 2000 nM; in that of `CNCC(=O)NCCc1cn2c(C(=O)NCC34CC5CC(CC(C5)C3)C4)cccc2n1` [Compound 270, N-(adamantan-1-ylmethyl)-2-{2-[(N-methylglycyl)amino]ethyl}imidazo[1,2-a] pyridine-5-carboxamide], less than 2000 nM.
Same read-out and setting: in the case of `N#CCCc1cn2c(C(=O)NCC34CC5CC(CC(C5)C3)C4)cccc2n1` [Compound 274, N-(adamantan-1-ylmethyl)-2-(2-cyanoethyl)imidazo[1,2-a]pyridine-5-carboxamide] it was less than 2000 nM.
Regarding `Cc1nn(Cc2cn3c(C(=O)NCC45CC6CC(CC(C6)C4)C5)cccc3n2)cc1C(=O)O` [Compound 275, 1-({5-[(adamantan-1-ylmethyl)carbamoyl]imidazo [1,2-a]pyridin-2-yl}methyl)-3-methyl-1H-pyrazole-4-carboxylic acid], the IC50 under setting [1] is less than 2000 nM.
Still for that read-out and setting: in the case of `Cc1cc(C(=O)O)nn1Cc1cn2c(C(=O)NCC34CC5CC(CC(C5)C3)C4)cccc2n1` [Compound 276, 1-({5-[(adamantan-1-ylmethyl)carbamoyl]imidazo[1,2-a]pyridin-2-yl}methyl)-5-methyl-1H-pyrazole-3-carboxylic acid] it was less than 2000 nM; in that of `C[C@H](N)C(=O)N[C@@H]1CCN(Cc2cn3c(C(=O)NCC45CC6CC(CC(C6)C4)C5)cccc3n2)C1` [Compound 277, N-(adamantan-1-ylmethyl)-2-{[(3R)-3-(L-alanylamino)pyrrolidin-1-yl]methyl}imidazo[1,2-a]pyridine-5-carboxamide], less than 2000 nM.
Still for that read-out and setting: as for `C=Cc1cn2c(C(=O)NCC34CC5CC(CC(C5)C3)C4)cccc2n1` [Compound 278, N-(adamantan-1-ylmethyl)-2-vinylimidazo[1,2-a]pyridine-5-carboxamide], the figure is less than 2000 nM; as for `Cc1c(C(=O)O)ncn1Cc1cn2c(C(=O)NCC34CC5CC(CC(C5)C3)C4)cccc2n1` [Compound 279, 1-({5-[(adamantan-1-ylmethyl)carbamoyl]imidazo[1,2-a]pyridin-2-yl}methyl)-5-methyl-1H-imidazole-4-carboxylic acid], less than 2000 nM.
As for `CCOC(=O)c1cn2c(C(=O)NC(C)C34CC5CC(CC(C5)C3)C4)cccc2n1` (stereo not shown) [Compound 280, ethyl 5-[(1-adamantan-1-ylethyl)carbamoyl] imidazo[1,2-a] pyridine-2-carboxylate], under setting [1], the IC50 was less than 2000 nM.
On the same count and under the same terms, as for `CCOC(=O)Cc1cn2c(C(=O)NC(C)C34CC5CC(CC(C5)C3)C4)cccc2n1` (stereo not shown) [Compound 281, ethyl {5-[(1-adamantan-1-ylethyl)carbamoyl]imidazo[1,2-a]pyridin-2-yl}acetate], the figure is less than 2000 nM; as for `O=C(NCC12CC3CC(CC(C3)C1)C2)c1cccc2nc(CN3CC[C@H](F)C3)cn12` [Compound 282, N-(adamantan-1-ylmethyl)-2-[(3-fluoropyrrolidin-1-yl)methyl]imidazo[1,2-a]pyridine-5-carboxamide], less than 2000 nM; as for `NCCS(=O)(=O)Cc1cn2c(C(=O)NCC34CC5CC(CC(C5)C3)C4)cccc2n1` [Compound 283, N-(adamantan-1-ylmethyl)-2-{[(2-aminoethyl)sulfonyl]methyl}imidazo [1,2-a]pyridine-5-carboxamide], less than 2000 nM.
On the same count and under the same terms, as for `Cc1cc(-c2cn3c(C(=O)NCC45CC6CC(CC(C6)C4)C5)cccc3n2)n[nH]1` [Compound 284, N-(adamantan-1-ylmethyl)-2-(5-methyl-1H-pyrazol-3-yl)imidazo[1,2-a]pyridine-5-carboxamide], the figure is less than 2000 nM; as for `O=C(O)COCc1cn2c(C(=O)NCC34CC5CC(CC(C5)C3)C4)cccc2n1` [Compound 285, ({5-[{adamantan-1-ylmethyl)carbamoyl]imidazo[1,2-a]pyridin-2-yl}methoxy)acetic acid], less than 2000 nM; as for `O=C(NCC12CC3CC(CC(C3)C1)C2)c1cccc2nc(CN3CCCC3)cn12` [Compound 286, N-(adamantan-1-ylmethyl)-2-(pyrrolidin-1-ylmethyl)imidazo[1,2-a]pyridine-5-carboxamide], less than 2000 nM.
Still for that read-out and setting: in the case of `O=C(O)CSCc1cn2c(C(=O)NCC34CC5CC(CC(C5)C3)C4)cccc2n1` [Compound 287, [({5-[(adamantan-1-ylmethyl)carbamoyl]imidazo[1,2-a]pyridin-2-yl}methyl)thio]acetic acid] it was less than 2000 nM.
Take `O=C(NCC12CC3CC(CC(C3)C1)C2)c1cccc2nc(CN3CCCC(F)(F)C3)cn12` [Compound 288, N-(adamantan-1-ylmethyl)-2-[(3,3-difluoropiperidin-1-yl)methyl]imidazo[1,2-a]pyridine-5-carboxamide]: the 50% inhibitory concentration (IC50) under setting [1] is less than 2000 nM.
For `O=C(O)CS(=O)(=O)Cc1cn2c(C(=O)NCC34CC5CC(CC(C5)C3)C4)cccc2n1` [Compound 289, [({5-[(adamantan-1-ylmethyl)carbamoyl]imidazo[1,2-a]pyridin-2-yl}methyl)sulfonyl] acetic acid], the IC50 under setting [1] is less than 2000 nM.
Same read-out and setting: in the case of `O=C(NCC12CC3CC(CC(C3)C1)C2)c1cccc2nc(CN3CCC(F)(F)CC3)cn12` [Compound 290, N-(adamantan-1-ylmethyl)-2-[(4,4-difluoropiperidin-1-yl)methyl]imidazo[1,2-a]pyridine-5-carboxamide] it was less than 2000 nM; in that of `O=C(NCC12CC3CC(CC(C3)C1)C2)c1cccc2nc(CN3CCOCC3)cn12` [Compound 291, N-(adamantan-1-ylmethyl)-2-(morpholin-4-ylmethyl)imidazo[1,2-a]pyridine-5-carboxamide], less than 2000 nM.
On the same count and under the same terms, as for `O=C(NCC12CC3CC(CC(C3)C1)C2)c1cccc2nc(CCc3nnn[nH]3)cn12` [Compound 292, N-(adamantan-1-ylmethyl)-2-(2-(1H-tetrazol-5-yl)ethyl]imidazo[1,2-a]pyridine-5-carboxamide], the figure is less than 2000 nM; as for `O=C(NCC12CC3CC(CC(C3)C1)C2)c1cccc2nc(CSc3nnc[nH]3)cn12` [Compound 293, N-(adamantan-1-ylmethyl)-2-[(4H-1,2,4-triazol-3-ylthio)methyl]imidazo [1,2-a]pyridine-5-carboxamide], less than 2000 nM.
The same measure, in the same setting: as for `O=C(NCC12CC3CC(CC(C3)C1)C2)c1cccc2nc(CN3CC[C@@H](F)C3)cn12` [Compound 294, N-(adamantan-1-ylmethyl)-2-[(3-fluoropyrrolidin-1-yl)methyl]imidazo[1,2-a]pyridine-5-carboxamide], the figure is less than 2000 nM.
